Values of other authors, collected in patent publication US10577339B2, “Method for manufacturing furan-2,5-dicarboxylic acid (FDCA) from a salt solution” (PURAC BIOCHEM BV, priority 2015, dated 2020).

Details: at 40° C.

saturation concentration: 32.8%
Compound: O=S(=O)([O-])[O-].[Na+].[Na+] [Na2SO4, sodium sulphate]
